Results: patent US20190350964A1, “ANTI-CANCER COMPOUNDS AND USES THEREOF” (NATIONAL UNIVERSITY OF SINGAPORE, priority 2016, published 2019)

Legend:
PI5P4Kα = biological target: T1, PI5P4Kα (Homo sapiens, UniProt P48426); assay: Cell-free PI5P4Kα activity assay (ADP-Glo); format: biochemical; details: 1 h pre-incubation; PI(5)P 20 μM, ATP 10 μM; read-out: IC50, kinase activity of purified PI5P4Kα in vitro
T1 construct: gift from Daiichi Sankyo Co., Ltd. and Daiichi Sankyo RD Novare Co., Ltd
Procedure: For cell-free PI5P4Kα activity assays, serial dilutions of compounds were pre-incubated with 1 ng of PI5P4Kα (kind gift from Daiichi Sankyo Co., Ltd. and Daiichi Sankyo RD Novare Co., Ltd.) in reaction buffer [50 mM HEPES (pH 7.0), 13 mM MgCl2, 0.005% CHAPS, 0.01% BSA, 2.5 mM DTT] for 1 h at 25° C. DOPS (80 μM, Avanti polar lipids), PI(5)P (20 μM, Echelon) and ATP (10 μM, Sigma-Aldrich) were added and further incubated for 90 min at room temperature. PI5P4Kα activity was measured by recording luminescent signals (Tecan) using an ADP-Glo Kinase Assay (Promega) according to the manufacturer's protocol.

PIK3IP1 = assay: qRT-PCR of PIK3IP1 mRNA in Ras- or Raf-mutant cancer cell lines; format: cell-based, human; details: U0126 and/or SCH772984, 24 h
Procedure: […] human […] ID NO: 11, [NT] ID NO: 12), human […] ID NO: 13, [NT] ID NO: 14), human […] ID NO: 15, [NT] ID NO: 16) and human PIK3IP1 ([NT] ID NO: 17, [NT] ID NO: 18). The TATA-binding protein (TBP) gene was used for normalization. All PCR reactions were performed in triplicate.

[1] = test system: normal and transformed BJ cells; assay: a131 SAR analysis: pH3(Ser10) immunoblot, BrdU incorporation, subG1 FACS; format: cell-based, human; design: key: Group 1: possess the dual-inhibitory properties of both causing the arrest of normal BJ cells at the G1/S phase and also causing mitotic arrest/catastrophe in transformed BJ cells; Group 2: only cause the arrest of normal BJ cells at the G1/S phase; Group 3: cause mitotic arrest/catastrophe in transformed BJ cells, but do not arrest normal BJ cells at the G1/S phase; Group 4: are inactive or weakly active; details: 5 μM, 48 h
Procedure: (§1) Cell death was assessed via Annexin V and/or PI (propidium iodide) staining according to the manufacturer's instructions (eBioscience). Cell growth arrest was assessed by direct measurement of DNA synthesis through incorporation of the nucleoside analog bromodeoxyuridine (BrdU). Briefly, BrdU (30 μM, Sigma-Aldrich) was added for 2 h before harvesting cells. Cells were subsequently stained with Pacific Blue-conjugated BrdU antibody (Invitrogen) for 1 h followed by PI staining. Stained cells were analyzed by MACSQuant (MACS). Three independent experiments were performed in triplicate. The percentage of Annexin V/PI- or BrdU-positive cells was quantified using Flow Jo software (Becton Dickinson). Where indicated, the combined activity of caspase-3/7 was determined using the caspase-Glo 3/7 Assay Kit (Promega) and normalized to the number of viable cells as determined by MTT assay.
Total cell lysates were prepared with 1% triton lysis buffer [25 mM Tris HCl (pH 8.0), 150 mM NaCl, 1% triton-X100, 1 mM dithiothreitol (DTT), protease inhibitor mix (Complete Mini, Roche) and phosphatase inhibitor (PhosphoStop, Roche)] and subjected to SDS-PAGE. The following antibodies were used for immunoblotting: anti-β-actin (Sigma-Aldrich), anti-cleaved PARP (Abcam, #ab32064), anti-PI5P4Kα (#5527), anti-PI5P4Kβ (#9694), anti-cleaved caspase-3 (#9664), anti-pHistone H3(Ser10) (#3377), anti-pAkt(S473) (#9271), anti-pAkt(T308) (#13038), anti-total Akt (#9272), anti-p70S6K(T389) (#9234), anti-total p70S6K (#9202), anti-pErk (#4370), anti-γ-Histone H2AX (#9718) (Cell signaling) and anti-PIK3IP1 (Proteintech, #16826-1-AP). The secondary antibodies used were sheep anti-mouse IgG HRP and donkey anti-rabbit IgG HRP (Amersham; 1:2000 dilution). Immunoreactive proteins were visualized using ECL reagent (Amersham). Where indicated, intensities of protein bands were quantified by densitometry (Odyssey V3.0), normalized to their loading controls and then calculated as fold expression change relative to DMSO control.

[2] = test system: MDA-MB-231 human breast tumor cells; assay: MDA-MB-231 tumor xenograft in nude mice; format: in vivo, mouse; details: a131 20 mg/kg, b5 40-80 mg/kg, PO or IP twice daily, 15 days
Description: BALB/c athymic female nude mice (nu/nu, 5-7 weeks) (InVivos) were kept under specific pathogen-free (SPF) conditions. The care and use of mice was approved by the Duke-NUS IACUC in accordance with protocol 2015/SHS/1030. HCT15 human colon cancer cells (5×10^6) or MDA-MB-231 human breast cancer cells (4×10^6 with Matrigel) were subcutaneously injected into the flanks of mice. When the mean tumor volume reached 100-300 mm^3 (Day 1), the mice were randomly divided into experimental groups of 6 mice by an algorithm that moves animals around to achieve the best case distribution to assure that each treatment group has similar mean tumor burden and standard deviation. No statistical method was used to predetermine sample size. […] Tumor dimensions were measured using calipers, and tumor volume (mm^3) was calculated using the formula width^2×length/2 in a blinded fashion. […] Images were acquired in 3D-SIM mode using a super resolution microscope (Nikon), and the number of cells with either 2 or mitotic-spindles was quantified (n>50 cells per section, 6-7 sections per treatment). […] For the DAB image, a fixed threshold was used, watershed applied and the number of DAB stained nuclei counted. In all cases, no data or animals were excluded and results are expressed as mean and standard deviation of the mean.

[3] = test system: HCT-15 human colon adenocarcinoma cells; assay: HCT-15 tumor xenograft in nude mice; format: in vivo, mouse; details: for antitumor activity (tumor volume): a131 20 mg/kg, b5 40-80 mg/kg, 12 days, paclitaxel IV
Description: BALB/c athymic female nude mice (nu/nu, 5-7 weeks) (InVivos) were kept under specific pathogen-free (SPF) conditions. The care and use of mice was approved by the Duke-NUS IACUC in accordance with protocol 2015/SHS/1030. HCT15 human colon cancer cells (5×10^6) or MDA-MB-231 human breast cancer cells (4×10^6 with Matrigel) were subcutaneously injected into the flanks of mice. When the mean tumor volume reached 100-300 mm^3 (Day 1), the mice were randomly divided into experimental groups of 6 mice by an algorithm that moves animals around to achieve the best case distribution to assure that each treatment group has similar mean tumor burden and standard deviation. No statistical method was used to predetermine sample size. […] Paclitaxel (Cayman Chemical) was dissolved in ethanol:Tween 80=1:3 (v/v) solution followed by the addition of a 5% glucose solution (final ratio, ethanol:Tween 80:5% glucose=5:15:80) and injected via the tail vain (IV). Tumor dimensions were measured using calipers, and tumor volume (mm^3) was calculated using the formula width^2×length/2 in a blinded fashion. On Day 12 (HCT15) or Day 16 (MDA-MB-231), mice were sacrificed. Tumors were collected, fixed overnight in 4% paraformaldehyde (PFA) and stored in 70% ethanol. For immunostaining, antigens were retrieved from formaldehyde-fixed, paraffin-embedded tumor tissue sections for 30 min by boiling in sodium citrate buffer (pH 6.0) using a microwave histoprocessor (Milestone). Endogenous peroxidase activity in tissue sections was depleted by treatment with 3% hydrogen peroxide (H2O2 in 1×TBS) for 20 min at room temperature. Tumor tissue sections were incubated overnight with anti-β-tubulin (Abcam; 1:100 in 3% BSA/TBS-Tween 20) at 4° C. followed by incubation with goat anti-rabbit FITC-conjugated secondary antibody (Invitrogen; 1:200 in 3% BSA/TBS) for 1 h at 25° C. After dehydration treatment, coverslips were mounted using DAPI mounting medium (Vector). Images were acquired in 3D-SIM mode using a super resolution microscope (Nikon), and the number of cells with either 2 or mitotic-spindles was quantified (n>50 cells per section, 6-7 sections per treatment). For detection of apoptosis using the TUNEL method, the ApopTag Plus Peroxidase In Situ Apoptosis Detection Kit (Millipore) was used for formaldehyde-fixed, paraffin-embedded tumor tissue sections treated with b5 (80 mg/kg, IP) or control vehicle for 12 days. Slide scans were acquired using a MetaSystems Metafer built on a Zeiss Axiolmager Z.2 upright microscope. The system is equipped with a CoolCubel camera and a Zeiss Plan-Neofluar 20×/0.5 Ph2 objective lens. Image acquisition was controlled with Metafer4 software, and stitching was performed with the VSlide software and further processed using the open source software FIJI. A custom macro was used to batch process the images in the following sequence: Gaussian filter, color deconvolution of hematoxylin and DAB, thresholding the hematoxylin image, watershed to separate touching nuclei, and then count the number of hematoxylin-stained nuclei. For the DAB image, a fixed threshold was used, watershed applied and the number of DAB stained nuclei counted. In all cases, no data or animals were excluded and results are expressed as mean and standard deviation of the mean.

[4] = test system: normal and transformed BJ cells; assay: Crystal violet / MTT viability of isogenic normal and transformed BJ cells; details: 72 h; crystal violet and MTT (0.1-40 μM)
[5] = test system: normal and transformed BJ cells; assay: Chemoprotection: a166 pre-treatment followed by a159, paclitaxel or etoposide; format: cell-based, human; details: without a166 pre-treatment
Procedure: as §1

T1 sequence (P48426 whole entry): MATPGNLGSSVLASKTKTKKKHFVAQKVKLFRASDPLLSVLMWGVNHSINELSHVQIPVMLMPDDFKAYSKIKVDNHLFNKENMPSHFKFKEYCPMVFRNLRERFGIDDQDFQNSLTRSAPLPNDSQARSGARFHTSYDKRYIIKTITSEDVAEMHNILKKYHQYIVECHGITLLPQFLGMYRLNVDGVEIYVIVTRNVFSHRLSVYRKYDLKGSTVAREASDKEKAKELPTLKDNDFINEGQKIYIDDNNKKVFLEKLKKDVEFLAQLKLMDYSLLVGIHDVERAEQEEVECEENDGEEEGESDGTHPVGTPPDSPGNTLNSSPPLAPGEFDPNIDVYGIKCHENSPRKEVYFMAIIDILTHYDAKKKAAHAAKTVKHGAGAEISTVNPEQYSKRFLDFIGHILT

COc1cc(/C=C(\C#N)C(=O)c2ccc(O)c(O)c2)cc(I)c1O [I-OMe-AG-538]
IC50 (PI5P4Kα): 2100 nM

O=C(Nc1ccc2[nH]nc(-c3ccncc3)c2c1)[C@@H]1CCN(CC(=O)N2CCN(c3ccc(-c4ncccn4)cc3)CC2)C1 [SCH772984]
PIK3IP1 mRNA expression after MEK/ERK inhibition (PIK3IP1): attenuates Ras- and Raf-mediated suppression of PIK3IP1

N#CC(=C(/N)Sc1ccccc1N)/C(C#N)=C(\N)Sc1ccccc1N [U0126]
PIK3IP1 mRNA expression after MEK/ERK inhibition (PIK3IP1): attenuates Ras- and Raf-mediated suppression of PIK3IP1

N#C/C(=C\c1cncc2ccccc12)c1c[nH]c2ccccc12 [a132]
Group (a131 SAR analysis) [1]: Group 4

N#C/C(=C\c1cccc2cccnc12)c1c[nH]c2ccccc12 [a158]
Group (a131 SAR analysis) [1]: Group 2

N#C/C(=C\c1cccc2ncccc12)c1c[nH]c2ccccc12 [a159]
Group (a131 SAR analysis) [1]: Group 3

N#C/C(=C\c1cccc2cnccc12)c1c[nH]c2ncccc12 [a167]
Group (a131 SAR analysis) [1]: Group 4

N#C/C(=C\c1cccc2cnccc12)c1nc2ccccc2[nH]1 [a169]
Group (a131 SAR analysis) [1]: Group 4

CN1CCN(CC(=O)n2cc(/C(C#N)=C/c3cccc4cnccc34)c3ccccc32)CC1 [b5, (Z)-3-(isoquinolin-5-yl)-2-(1-(2-(4-methylpiperazin-1-yl)acetyl)-1H-indol-3-yl)acrylonitrile]
antitumor activity (tumor volume) [2]: marked antitumor efficacies | cancer cell death in tumor sections (TUNEL staining) ([3]; HCT-15 tumor sections, Day 12, b5 80 mg/kg IP): cancer cell death as determined by TUNEL staining | antitumor activity (tumor volume) ([3]; PO or IP twice daily): marked antitumor efficacies | body weight loss ([3]; xenograft-bearing mice, PO or IP twice daily): without any body weight loss | Group (a131 SAR analysis) [1]: Group 1

CC(=O)NCCC(=O)n1cc(/C(C#N)=C/c2cccc3cnccc23)c2ccccc21 [b9]
Group (a131 SAR analysis) [1]: Group 1

N#C/C(=C\c1cccc2cnccc12)c1c[nH]c2ccc(OCCCN3CCCC3)cc12 [b12]
Group (a131 SAR analysis) [1]: Group 2

COCCOc1ccc2[nH]cc(/C(C#N)=C/c3cccc4cnccc34)c2c1 [b16]
Group (a131 SAR analysis) [1]: Group 2

CN1CCN(C(=O)Cn2cc(/C(C#N)=C/c3cccc4cnccc34)c3ccccc32)CC1 [b94]
Group (a131 SAR analysis) [1]: Group 2

COC(=O)Nc1nc2ccc(C(=O)c3cccs3)cc2[nH]1 [nocodazole]
selective killing of transformed versus normal BJ cells (cell viability) [4]: showed minimal selectivity

CC(=O)O[C@H]1C(=O)[C@@]2(C)[C@H]([C@H](OC(=O)c3ccccc3)[C@]3(O)C[C@H](OC(=O)[C@H](O)[C@@H](NC(=O)c4ccccc4)c4ccccc4)C(C)=C1C3(C)C)[C@]1(OC(C)=O)CO[C@@H]1C[C@@H]2O [paclitaxel]
selectivity against transformed BJ cells, treatment alone [5]: showed minimal selectivity against transformed BJ cells | selective killing of transformed versus normal BJ cells (cell viability) [4]: showed minimal selectivity | antitumor activity (tumor volume) ([3]; PO or IP twice daily): did not show significant antitumor activity
